Structures are written as SMILES. pIC50: −log10 of the molar value. Calls of active or inactive are those of the source. The calls are words filed in the database; no cut-off is given here. *1 amine or outer side, *2 acyl side, *3 side chain or, on linkers, in order; H or OH if unused. Where a SMILES comes first, the peptide text is derived from it. Bridges are numbered along the chain shown (N, C = ends). [ ]: non-standard residue; d: D form. X1 = O=C([C@H](Cc1cc(=O)oc2cc(O)ccc12)N[*:1])[*:2]; hPhe = N[C@@H](CCc1ccccc1)C(=O)O; β3hE = N[C@@H](CCC(=O)O)CC(=O)O

By pIC50 is commonly meant −log10 of the IC50, conventionally taken in molar units.

One test concerns HUVEC. Kind of test: Inhibition of VEGF165-induced cell migration in HUVEC at 100 uM after 6 hrs by wound healing assay. It is filed as functional, cell-based. To be noted: Homo sapiens.
Test [1] has as its target Vascular endothelial growth factor receptor 1 (Homo sapiens, UniProt P17948). Kind of test: Displacement of biotinylated VEGF165 from human recombinant VEGFR1 by chemiluminescent assay.

Sequence of Vascular endothelial growth factor receptor 1 (P17948 whole entry): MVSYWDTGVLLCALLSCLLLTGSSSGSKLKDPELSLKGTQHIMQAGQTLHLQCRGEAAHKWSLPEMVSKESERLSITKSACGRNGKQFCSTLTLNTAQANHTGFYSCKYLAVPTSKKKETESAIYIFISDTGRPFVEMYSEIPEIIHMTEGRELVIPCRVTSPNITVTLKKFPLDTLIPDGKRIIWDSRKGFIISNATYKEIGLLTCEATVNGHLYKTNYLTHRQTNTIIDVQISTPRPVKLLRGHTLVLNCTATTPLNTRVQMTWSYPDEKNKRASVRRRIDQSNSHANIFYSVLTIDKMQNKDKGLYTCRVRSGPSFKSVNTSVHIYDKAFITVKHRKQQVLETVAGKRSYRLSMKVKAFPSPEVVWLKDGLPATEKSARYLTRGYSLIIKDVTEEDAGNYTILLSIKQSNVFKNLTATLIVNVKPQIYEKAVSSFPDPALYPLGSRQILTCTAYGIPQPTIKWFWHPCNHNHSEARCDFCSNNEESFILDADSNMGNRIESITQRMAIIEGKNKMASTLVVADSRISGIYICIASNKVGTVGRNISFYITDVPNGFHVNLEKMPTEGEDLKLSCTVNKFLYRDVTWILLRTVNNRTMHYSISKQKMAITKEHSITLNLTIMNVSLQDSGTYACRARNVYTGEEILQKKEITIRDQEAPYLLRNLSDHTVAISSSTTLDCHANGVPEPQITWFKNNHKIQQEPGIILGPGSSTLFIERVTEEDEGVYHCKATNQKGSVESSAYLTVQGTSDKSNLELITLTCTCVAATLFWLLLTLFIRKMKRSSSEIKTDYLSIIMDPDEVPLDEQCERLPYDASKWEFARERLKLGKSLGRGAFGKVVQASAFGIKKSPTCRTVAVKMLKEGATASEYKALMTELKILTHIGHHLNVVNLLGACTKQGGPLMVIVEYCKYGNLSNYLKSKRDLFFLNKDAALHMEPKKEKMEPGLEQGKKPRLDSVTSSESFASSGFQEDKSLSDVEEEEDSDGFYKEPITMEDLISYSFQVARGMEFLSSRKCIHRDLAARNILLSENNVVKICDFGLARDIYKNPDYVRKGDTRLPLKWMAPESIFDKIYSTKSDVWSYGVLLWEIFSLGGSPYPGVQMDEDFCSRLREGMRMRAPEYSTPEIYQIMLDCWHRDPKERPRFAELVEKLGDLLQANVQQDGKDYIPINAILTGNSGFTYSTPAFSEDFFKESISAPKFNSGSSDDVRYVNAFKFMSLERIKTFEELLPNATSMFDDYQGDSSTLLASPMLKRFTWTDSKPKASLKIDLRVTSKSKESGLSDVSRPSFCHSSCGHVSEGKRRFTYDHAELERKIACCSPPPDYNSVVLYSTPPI

Take `CC(C)C[C@@H]1NC(=O)CNC(=O)[C@H](CCC(=O)O)NC(=O)[C@H](CC(=O)O)NC(=O)[C@H](Cc2ccc(O)cc2)NC(=O)[C@H](Cc2ccc(O)cc2)NC(=O)CC[C@@H](C(N)=O)NC(=O)[C@H](CCC(=O)O)NC1=O` (YYDEGLEE-NH2; lactam N-8): the result with HUVEC was Active. Regarding `CC(C)C[C@@H]1NC(=O)CNC(=O)[C@H](CCC(=O)O)NC(=O)[C@H](Cc2cc(=O)oc3cc(O)ccc23)NC(=O)[C@H](CCc2ccccc2)NC(=O)CC[C@@H](C(N)=O)NC(=O)[C@H](CCC(=O)O)NC1=O` ([hPhe][X1]EGLEE-NH2; lactam N-7), the pIC50 in test [1] was 4.71. As to `CC(C)C[C@@H]1NC(=O)CNC(=O)[C@H](CCC(=O)O)NC(=O)[C@H](Cc2cc(=O)oc3cc(O)ccc23)NC(=O)[C@H](CCc2ccccc2)NC(=O)CC[C@@H](CC(N)=O)NC(=O)[C@H](CCC(=O)O)NC1=O` ([hPhe][X1]EGLE[β3hE]-NH2; lactam N-7), in the test with HUVEC, the result was Active.
